Measurements: PubChem BioAssay (NCI)
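Following 48 hours of exposure in 96-well plates, responses at five concentrations were used to interpolate endpoints linearly. At the GI50, growth is halved. At the TGI there is no net growth.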 Where a SMILES comes first, the peptide text is derived from it.

What was measured:
Assay in all cases: DTP human tumour cell line panel, 48 h
M14 melanoma = test system: M14 melanoma
NCI/ADR-RES ovarian = test system: NCI/ADR-RES ovarian
EKVX NSCLC = test system: EKVX NSCLC
MOLT-4 leukemia = test system: MOLT-4 leukemia
MALME-3M melanoma = test system: MALME-3M melanoma
HS 578T breast = test system: HS 578T breast
SK-OV-3 ovarian = test system: SK-OV-3 ovarian
CCRF-CEM leukemia = test system: CCRF-CEM leukemia
RXF 393 renal = test system: RXF 393 renal
HCC-2998 colon = test system: HCC-2998 colon

| Structure (SMILES) | TGI (M14 melanoma) | TGI (NCI/ADR-RES ovarian) | TGI (EKVX NSCLC) | TGI (MOLT-4 leukemia) | TGI (MALME-3M melanoma) | TGI (HS 578T breast) | TGI (SK-OV-3 ovarian) | TGI (CCRF-CEM leukemia) | GI50 (RXF 393 renal) | TGI (RXF 393 renal) | TGI (HCC-2998 colon) | GI50 (MALME-3M melanoma) |
| --- | --- | --- | --- | --- | --- | --- | --- | --- | --- | --- | --- | --- |
| C=C[C@@H]1OC(=O)O[C@H]1CO | > 100 µM | > 100 µM | > 100 µM | > 100 µM | > 100 µM | > 100 µM | > 100 µM | > 100 µM |  |  |  |  |
| CC1NC(=O)CNC(=O)CNC(=O)C(Cc2ccc(O)cc2)NC(=O)C(C(C)C)NC(=O)C(C)NC1=O (stereo not given) (cyclo(GGAAVY); configuration not given here) |  | > 100 µM | > 100 µM | > 100 µM | > 100 µM |  | > 100 µM | > 100 µM | > 100 µM | > 100 µM | > 100 µM | > 100 µM |
| O=C(O)CC(C(=O)O)c1ccccc1[N+](=O)[O-] (stereo not given) | > 100 µM | > 100 µM | > 100 µM |  | > 100 µM | > 100 µM | > 100 µM | > 100 µM |  | > 100 µM | > 100 µM |  |
| COc1cc(NS(C)(=O)=O)ccc1NCc1cnc2ccc3[nH]c(C)ccc3c12 | > 100 µM | > 100 µM | > 100 µM | 44.7 µM | > 100 µM | > 100 µM | > 100 µM | 67.2 µM |  | 39.5 µM |  |  |
| CSc1ccc2c(cc1=O)[C@@H](NC(C)=O)CCc1cc(O)c(O)c(O)c1-2 | 36 µM | 58.3 µM | > 100 µM | > 100 µM | > 100 µM |  | > 100 µM | > 100 µM |  | > 100 µM | 50.5 µM |  |
| CCCCCC(CN1CCOCC1)C(=O)/C=C/c1ccccc1 (stereo not given) | 5.44 µM |  | 22.5 µM | 4.61 µM | 6.42 µM |  | 11.8 µM | 6.72 µM |  | 3.47 µM | 4.46 µM |  |
| CC/C(=N\NC(=O)c1cccnc1)c1ccc2c(c1)OCCO2 | > 100 µM | > 100 µM | > 100 µM | > 100 µM | 91.5 µM | 93.7 µM | > 100 µM | > 100 µM |  | > 100 µM |  |  |
| COc1c2c(c(OC)c3c1c(=O)c1ccccc1n3C)OCO2 | > 100 µM | > 100 µM | > 100 µM | > 31.6 µM |  | > 100 µM | > 100 µM | > 31.6 µM |  | > 100 µM | > 100 µM |  |
| CCCCCCCCCOC(=O)c1cnc(Cl)cn1 | 36.3 µM | 48.2 µM | 41.6 µM | > 100 µM | 39.4 µM | 68 µM | > 100 µM | > 100 µM |  |  |  |  |
| NCc1ccc(-c2ccc(-c3ccc(-c4ccc(CN)s4)s3)s2)s1 | > 100 µM | > 100 µM | > 100 µM | > 100 µM | > 100 µM |  | > 100 µM | > 100 µM |  | > 100 µM | > 100 µM |  |
| Cc1cc(-c2ccc(C(=O)O)[nH]2)on1 | > 100 µM | 75.9 µM | > 100 µM | > 100 µM | > 100 µM | > 100 µM | > 100 µM |  |  | > 100 µM | > 100 µM |  |
| CC1=C2C(O)C(C(C)C(=O)NCC(C)C)CCC2(C)C=CC1=O (stereo not given) |  | > 100 µM | > 100 µM | > 100 µM |  |  |  | > 100 µM |  | > 100 µM | > 100 µM |  |
| COc1ccc2c(c1)C(N)CC2=O (stereo not given) | > 100 µM | > 100 µM | > 100 µM | > 100 µM |  | > 100 µM | > 100 µM | > 100 µM |  | 36.3 µM | > 100 µM |  |
| CN1C2CCC1CC(OC(c1ccccc1)c1ccccc1)C2 (stereo not given) | 27.9 µM | 34.3 µM | 91.2 µM | 73.6 µM | 28.1 µM | 33.5 µM | 47.1 µM | 29.9 µM |  | 42.3 µM |  |  |
| S=c1[nH]nc(COc2ccc3c(c2)CCCC3)n1/N=C/c1ccc(Cl)cc1 | 34.5 µM | 33.7 µM | 34.6 µM | 46.9 µM | 33.1 µM | 39.7 µM | 32.4 µM | 55.8 µM |  | 28.8 µM |  |  |
| COC(CN(C)C(=O)C(C)NC(=O)c1ccccc1)OC (stereo not given) | > 100 µM | > 100 µM | > 100 µM | > 100 µM | > 100 µM | > 100 µM | > 100 µM | > 100 µM |  | > 100 µM |  |  |
| Cc1c(N2C(=O)/C(=C/C=C/c3ccccc3)N=C2c2ccccc2)c(=O)n(-c2ccccc2)n1C | > 100 µM | 55 µM | 36.5 µM | 78.8 µM | 92.2 µM |  | 66.9 µM | 99.2 µM |  | 33.2 µM |  |  |
| O=C(Cn1c(=O)ccn(C2OC(CO)C(O)C2F)c1=O)c1ccc(F)cc1 (stereo not given) |  | > 100 µM | > 100 µM | > 100 µM | > 100 µM | > 100 µM |  | > 100 µM |  | > 100 µM |  |  |
| C[C@]12CC[C@@H]3c4ccc(O)cc4CC[C@H]3[C@@H]1C/C(=C\c1ccc([N+](=O)[O-])cc1)C2=O | > 100 µM | > 100 µM | > 100 µM | > 100 µM | > 100 µM |  | > 100 µM | > 100 µM |  | 50.4 µM | > 100 µM |  |
| COc1c(CC=C(C)C)c(O)c(C(CC(C)C)c2c(O)c(C(C)=O)c(O)c3c2OC(C(C)(C)O)C3)c(O)c1C(C)=O (stereo not given) | > 12.5 µM | 12.2 µM | 11.6 µM | > 12.5 µM | > 12.5 µM | > 12.5 µM |  | > 12.5 µM |  | 8.56 µM | > 12.5 µM |  |
| CC(C)=CCC[C@]1(C)CC[C@]2(C)C3CCC(=C(C)C)[C@@H](CCCO)[C@]3(C)CC[C@@]2(C)C1 (stereo not given in full) | > 100 µM | > 100 µM | > 100 µM | > 100 µM | > 100 µM | > 100 µM | > 100 µM | > 100 µM |  |  | > 100 µM |  |
| NC(N)=NCCCC(N=c1c2ccccc2n(O)c2ccccc12)C(=O)O (stereo not given) | > 100 µM |  | > 100 µM | > 100 µM | > 100 µM |  | > 100 µM | > 100 µM |  |  | > 100 µM |  |
| NC(=O)NC(=O)c1cnccn1 | > 100 µM | > 100 µM | > 100 µM | > 100 µM | > 100 µM |  | > 100 µM | > 100 µM |  | > 100 µM | > 100 µM |  |
| COc1ccc2[nH]c(CCNC(=O)c3cc([N+](=O)[O-])cc([N+](=O)[O-])c3)cc2c1 | > 100 µM | > 100 µM |  | > 100 µM | > 100 µM | > 100 µM | > 100 µM | > 100 µM |  | 56.9 µM |  |  |
